Measurements taken from patent publication US20230071014A1 (priority 2020, published 2023).

How the values were obtained:
SARS-CoV = settings: cited from earlier work; for Inhibitory activity against SARS-CoV: Thorax 2004, 59: 252-256
SARS-CoV-2 = test: Ritonavir reducing viral nucleic acid load in SARS-CoV-2 infected Vero E6 cells (qRT-PCR); type: cell-based, SARS-CoV-2 (nCoV-2019BetaCoV/Wuhan/WIV04/2019 strain); settings: for Copy number of virus genome: Vero E6 cells, supernatant, vehicle 5762396
Procedure: (1) Drug Treatment of Virus-Infected Cells
Vero E6 cells (purchased from ATCC, Catalog No. 1586) was inoculated on a 24-well plate, cultured for 24 hours; then virus infection was carried out. Specifically, SARS-CoV-2 (2019-nCoV) virus (nCoV-2019BetaCoV/Wuhan/WIV04/2019 strain, provided by Wuhan Institute of Virology, Chinese Academy of Sciences) was diluted with 2% cell maintenance solution (formulation: FBS (purchased from Gibco company, Catalog No. 16000044) was added to MEM (purchased from Gibco, Catalog No. 10370021) at a volume ratio of 2%, thereby obtaining the 2% cell maintenance solution) to a corresponding concentration, and then added to a 24-well plate so that each well contained a viral load of 100TCID50. […] To the vehicle control group, the 2% cell maintenance solution without any test drugs was added.
RNA extraction kit was purchased from Qiagen Company, Catalog No. 74106. The consumables (spin columns, RNase-free 2 ml collection tubes, etc.) and reagents (RLT, RW1, RPE, RNase-free water, etc.) involved in the following RNA extraction steps were part of the kit. The following extraction steps were recommended steps in the kit instruction.
1) 100 μL of the supernatant was taken from the tested plate and added to a nuclease-free EP tube, then 350 μL of Buffer RLT was added to each well and mixed by beating with a transfer liquid gun until complete lysis was achieved, then centrifugation was carried out to obtain a supernatant;
2) an equal volume of 70% ethanol was added to the supernatant obtained in 1) and mixed well;
3) the mixture solution obtained in 2) was transferred to a RNase-free spin column, and centrifuged at 12000 rpm for 15 seconds, and the waste liquid was discarded;
4) 700 μL of Buffer RW1 was added to the spin column, and centrifuged at 12000 rpm for 15 seconds to clean the spin column, and the waste liquid was discarded;
5) 500 μL of Buffer RPE was added to the spin column, and centrifuged at 12000 rpm for 15 seconds to clean the spin column, and the waste liquid was discarded;
6) 500 μL of Buffer RPE was added to the spin column, and centrifuged at 12000 rpm for 2 min to clean the spin column, the waste was discarded;
7) a new RNase-free 2 ml collection tube was used for replacement, centrifugation was carried out at 12000 rpm for 1 min, the spin column was dried, and then the spin column was transferred to a 1.5 ml collection tube in step 8);
8) a new 1.5 ml collection tube was used for replacement, in which the spin column dried in step 7) was placed, and […] of RNase-free water was added to the spin column, and centrifugation was carried out at 12000 rpm for 2 minutes, the obtained eluate contained the corresponding RNA, then the RNase inhibitor (purchased from NEB company, Catalog No. […]) was added, and Nano Drop (purchased from Thermo scientific, Nano Drop One) was used to detect each RNA concentration.
(3) RNA Reverse Transcription
In the experiment, the reverse transcription kit (PrimeScript™ RT reagent Kit with gDNA Eraser, Catalog No. RRO47Q) produced by TaKaRa was used for RNA reverse transcription.
The steps were as follows.
(1) Removal of gDNA: RNA samples of each experimental group were collected, 1 μg of each sample was taken for reverse transcription. First, 2 μl of 5×gDNA Eraser Buffer was added to the RNA sample of each experimental group, the reaction system was supplemented with RNase-free water to reach 10 μl, mixed well, and subjected to water bath at 42° C. for 2 min to remove the gDNA that might be present in the sample;
(2) Reverse transcription: Appropriate amounts of enzyme, primer Mix and reaction buffer were added to the sample obtained in […], RNase-free water was added to supplement to reach a volume of 20 μl, the reaction was performed in a water bath at 37° C. for 15 minutes, and then in water bath at 85° C. for 5 seconds, to obtain cDNA by transcription. […]

HIV-1 isolates = settings: low passage clinical isolates, n=13; cited from earlier work

Row | Structure (SMILES) | Inhibitory activity against SARS-CoV (SARS-CoV) | Copy number of virus genome (SARS-CoV-2; 0.14 μM, 48 hours after infection) | Copy number of virus genome (SARS-CoV-2; 0.41 μM, 48 hours after infection) | Copy number of virus genome (SARS-CoV-2; 1.23 μM, 48 hours after infection) | Copy number of virus genome (SARS-CoV-2; 3.70 μM, 48 hours after infection) | Copy number of virus genome (SARS-CoV-2; 11.11 μM, 48 hours after infection) | Copy number of virus genome (SARS-CoV-2; 33.33 μM, 48 hours after infection) | Reduction of viral RNA load in Vero E6 cells infected by SARS-CoV-2 (SARS-CoV-2; 48 hours after infection, FIG. 1) | Inhibition of the replication of SARS-CoV-2 virus genome in the infected supernatant (SARS-CoV-2; at concentrations of 33 μM, 11.1 μM) | Effectiveness against SARS-CoV (SARS-CoV; Biochemical and Biophysical Research Communications 318 (2004) 719-725) | EC50 (HIV-1 isolates)
1 | Cc1cccc(C)c1OCC(=O)N[C@@H](Cc1ccccc1)[C@@H](O)C[C@H](Cc1ccccc1)NC(=O)[C@H](C(C)C)N1CCCNC1=O [lopinavir] | inhibits SARS-CoV |  |  |  |  |  |  |  |  |  | 
2 | CC(C)c1nc(CN(C)C(=O)N[C@H](C(=O)N[C@@H](Cc2ccccc2)C[C@H](O)[C@H](Cc2ccccc2)NC(=O)OCc2cncs2)C(C)C)cs1 [ritonavir, [5S-(5R,8R,10R,11R)]-10-hydroxy-2-methyl-5-(1-methylethyl)-1-[2-(1-methylethyl)-4-thiazolyl]-3,6-dioxo-8,11-bis(phenylmethyl)-2,4,7,12-tetraazatridecan-13-oic acid, 5-thiazolyl methyl ester] | does not have inhibitory activity | 6032699 | 5632446 | 5565821 | 6213595 | 2236225 | 1855399 | inhibitory activity is dose-dependent | could effectively inhibit | ineffective | 22 nM
